Source: publication PMC12669672, “Structural insights into selective and dual antagonism of EP2 and EP4 prostaglandin receptors” (The EMBO Journal, 2025)
“And” between values parts separate entries of the source, which are not always exact repeats. Identical values can stand only once.

Key:
[1] = biological target: T1, constitutively active EP4 S73A (Homo sapiens, UniProt P35408, S73A); experiment: GloSensor cAMP assay, inhibition of constitutive activity; format: cell-based; conditions: for ΔpIC50: no PGE2, pIC50 mutant - pIC50 WT, mean
T1 construct: The full-length EP2 or EP4 was cloned into the pcDNA3.1 vector (Invitrogen), incorporating an N-terminal FLAG tag; expressed in transfected cells; host or cells: AD293
T1 sequence (P35408 whole entry S73A): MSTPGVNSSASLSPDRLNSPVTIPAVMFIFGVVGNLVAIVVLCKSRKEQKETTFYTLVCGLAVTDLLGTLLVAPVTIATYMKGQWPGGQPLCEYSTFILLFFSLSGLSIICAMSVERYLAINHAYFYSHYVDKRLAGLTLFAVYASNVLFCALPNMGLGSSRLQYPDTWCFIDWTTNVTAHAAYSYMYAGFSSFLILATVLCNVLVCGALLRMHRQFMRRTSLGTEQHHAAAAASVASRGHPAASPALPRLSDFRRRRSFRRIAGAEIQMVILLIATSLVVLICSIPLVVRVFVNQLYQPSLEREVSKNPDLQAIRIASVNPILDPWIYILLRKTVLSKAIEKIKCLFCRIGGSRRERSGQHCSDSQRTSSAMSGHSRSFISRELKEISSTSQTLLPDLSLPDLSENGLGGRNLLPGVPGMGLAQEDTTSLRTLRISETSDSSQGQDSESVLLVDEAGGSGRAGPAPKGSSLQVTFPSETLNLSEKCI
Method: (§1) The full-length EP2 or EP4 was cloned into the pcDNA3.1 vector (Invitrogen), incorporating an N-terminal FLAG tag. AD293 cells were seeded in six-well plates containing DMEM supplemented with 10% dialyzed FBS 1 day prior to transfection. Following overnight growth, cells were transfected with a 1:1 ratio of receptor construct and GloSensor22F cAMP biosensor (Promega) plasmids.
(§2) Twenty-four hours post-transfection, the cells were transferred to CO2-independent media containing 2% GloSensor cAMP Reagent (Promega) and distributed into 384-well assay plates at a density of 4000 cells per well in 10 μL. […] The plates were then incubated at 37 °C for an additional hour before luminescence measurements were taken using an EnVision plate reader.
(§3) Data analysis was performed using GraphPad Prism software v8.0.1. A nonlinear regression analysis, employing a sigmoidal dose–response model, was conducted to determine the Emax values and half-maximum inhibitory concentrations (IC50) for each compound tested.

EP4 S73A = biological target: T2, EP4 S73A (Homo sapiens, UniProt P35408, S73A); experiment: GloSensor cAMP assay, antagonism of PGE2-induced cAMP; format: cell-based; conditions: for cAMP activity (∆pIC50 from EP4 WT): Grapiprant, S73A; for ΔpIC50: PGE2 0.5 nM, pIC50 mutant - pIC50 WT, mean
T2 construct: The full-length EP2 or EP4 was cloned into the pcDNA3.1 vector; FLAG (N); expressed in transfected cells; host or cells: AD293 cells
T2 sequence (P35408 whole entry S73A): as above

EP4 = biological target: EP4; parameters: method as in Nakao et al, 2007; conditions: [3H]-PGE2 binding assay; ref Nakao et al, 2007; cited from earlier work
EP4-L99M = biological target: T3, EP4-L99M (Homo sapiens, UniProt P35408, L99M); experiment: GloSensor cAMP assay, antagonism of PGE2-induced cAMP, chimeric studies; format: cell-based; conditions: for ΔpIC50: PGE2 induced, pIC50 mutant - pIC50 WT, mean
T3 construct: The full-length EP2 or EP4 was cloned into the pcDNA3.1 vector (Invitrogen), incorporating an N-terminal FLAG tag; expressed in transfected cells; host or cells: AD293
T3 sequence (P35408 whole entry L99M): as the sequence (P35408 whole entry S73A) above, with A73S, L99M counted along it
Method: as §1, §2, §3

EP2 = tested on: EP2; parameters: method as in af Forselles et al, 2011; conditions: against PGE2-induced cAMP signaling in GloSensor cAMP assay; ref af Forselles et al, 2011; cited from earlier work
EP2-L301I = biological target: T4, EP2-L301I (Homo sapiens, UniProt P43116, L301I); experiment: GloSensor cAMP assay, antagonism of PGE2-induced cAMP, chimeric studies; format: cell-based; conditions: single experiments 1st-3rd
T4 construct: The full-length EP2 or EP4 was cloned into the pcDNA3.1 vector; FLAG (N); expressed in transfected cells; host or cells: AD293 cells
T4 sequence (P43116 whole entry L301I): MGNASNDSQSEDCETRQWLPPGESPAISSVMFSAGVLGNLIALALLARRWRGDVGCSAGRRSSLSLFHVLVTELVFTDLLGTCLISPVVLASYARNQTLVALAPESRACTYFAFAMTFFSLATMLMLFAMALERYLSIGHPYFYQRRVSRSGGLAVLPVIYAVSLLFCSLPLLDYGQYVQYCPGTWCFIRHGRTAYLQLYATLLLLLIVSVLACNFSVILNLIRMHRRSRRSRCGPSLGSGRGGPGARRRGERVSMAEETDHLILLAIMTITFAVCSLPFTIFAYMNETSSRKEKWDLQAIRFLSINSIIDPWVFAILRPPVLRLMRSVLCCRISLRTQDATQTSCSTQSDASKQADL
Method: as §1, §2, §3

For `CCc1nc2c(C)nc(C)cc2n1-c1ccc(CCNC(=O)NS(=O)(=O)c2ccc(C)cc2)cc1` [Grapiprant], the IC50 [1] was 2.19 nM, the remaining activity at 10 µM ([1]; 1 h, Grapiprant log([M]) -5.00, EP4-S73A, read-out: % cAMP activity (normalized to WT)) was 12.1% and the remaining activity at 1 µM ([1]; 1 h, Grapiprant log([M]) -6.00, EP4-S73A, read-out: % cAMP activity (normalized to WT)) was 13.5%. It also gave a remaining activity at 0.1 µM ([1]; 1 h, Grapiprant log([M]) -7.00, EP4-S73A, read-out: % cAMP activity (normalized to WT)) of 20.4%, a remaining activity at 0.01 µM ([1]; 1 h, Grapiprant log([M]) -8.00, EP4-S73A, read-out: % cAMP activity (normalized to WT)) of 38.9% and a remaining activity at 0.001 µM ([1]; 1 h, Grapiprant log([M]) -9.00, EP4-S73A, read-out: % cAMP activity (normalized to WT)) of 127%. For the same molecule, the remaining activity at 1 pM ([1]; 1 h, Grapiprant log([M]) -12.00, EP4-S73A, read-out: % cAMP activity (normalized to WT)) was 170%, the “Grapiprant cAMP activity (∆pIC50 from EP4 WT), Mean” value ([1]; S73A, Mean) was 0.215 and the “Grapiprant cAMP activity (∆pIC50 from EP4 WT)” value ([1]; S73A, single experiments 1st-3rd) was 0.364 and 0.097 and 0.184. For the same molecule, the ΔpIC50 [1] was 0.22 ± 0.08, the ΔpIC50 ([1]; listed as grapiprant) was “hardly influenced antagonistic potency” and the IC50 (EP4 S73A) was 5.62 nM. It also gave a remaining activity at 0.01 µM (EP4 S73A; 1 h, Grapiprant log([M]) -8, read-out: % cAMP activity (normalized to WT)) of 11.4%, a remaining activity at 0.001 µM (EP4 S73A; 1 h, Grapiprant log([M]) -9, read-out: % cAMP activity (normalized to WT)) of 21.5% and a remaining activity at 0.0001 µM (EP4 S73A; 1 h, Grapiprant log([M]) -10, read-out: % cAMP activity (normalized to WT)) of 24.9%. The remaining activity at 10 pM (EP4 S73A; 1 h, Grapiprant log([M]) -11, read-out: % cAMP activity (normalized to WT)) was 27.6%, the remaining activity at 1 pM (EP4 S73A; 1 h, Grapiprant log([M]) -12, read-out: % cAMP activity (normalized to WT)) was 23.6% and the “cAMP activity (∆pIC50 from EP4 WT)” value (EP4 S73A; Mean) was 0.985. The “cAMP activity (∆pIC50 from EP4 WT)” value (EP4 S73A; single experiments 1st-3rd) was 1.017 and 1.087 and 0.851, the ΔpIC50 (EP4 S73A) was 0.99 ± 0.07 and the ΔpIC50 (EP4 S73A; listed as grapiprant) was “enhanced the antagonism”. The Ki (EP4) was 13 nM, the remaining activity at 0.1 µM (EP4-L99M; 1 h, Grapiprant log([M]) -7, single experiments 1st-3rd, Fig. S7C, read-out: % cAMP activity (normalized to WT)) was 52.4% and the remaining activity at 0.0001 µM (EP4-L99M; 1 h, Grapiprant log([M]) -10, single experiments 1st-3rd, Fig. S7C, read-out: % cAMP activity (normalized to WT)) was 83.5%. The remaining activity at 1 pM (EP4-L99M; 1 h, Grapiprant log([M]) -12, single experiments 1st-3rd, Fig. S7C, read-out: % cAMP activity (normalized to WT)) was 85.6%, the ΔpIC50 (EP4-L99M) was -0.23 ± 0.07 and the ΔpIC50 (EP4-L99M; listed as grapiprant) was “slightly decreased the antagonistic potency”.

For `COc1ccc2cc(OCC3(C(=O)O)CN(C(=O)c4ccc(F)cc4)C3)ccc2c1` [PF-04418948], the Kb (EP2) is listed as 1.8 nM, the remaining activity at 10 µM (EP2-L301I; 1 h, ligand log([M]) -5, Fig. S7B, read-out: % cAMP activity (normalized to WT)) is listed as 20% and the remaining activity at 1 µM (EP2-L301I; 1 h, ligand log([M]) -6, Fig. S7B, read-out: % cAMP activity (normalized to WT)) is listed as 51.7%. It also gave a remaining activity at 0.1 µM (EP2-L301I; 1 h, ligand log([M]) -7, Fig. S7B, read-out: % cAMP activity (normalized to WT)) of 121%, a remaining activity at 0.01 µM (EP2-L301I; 1 h, ligand log([M]) -8, Fig. S7B, read-out: % cAMP activity (normalized to WT)) of 112% and a remaining activity at 0.001 µM (EP2-L301I; 1 h, ligand log([M]) -9, Fig. S7B, read-out: % cAMP activity (normalized to WT)) of 117%. The remaining activity at 0.0001 µM (EP2-L301I; 1 h, ligand log([M]) -10, Fig. S7B, read-out: % cAMP activity (normalized to WT)) was 113%, the remaining activity at 1 pM (EP2-L301I; 1 h, ligand log([M]) -12, Fig. S7B, read-out: % cAMP activity (normalized to WT)) was 108% and the “cAMP activity (∆pIC50 from EP2 WT)” value (EP2-L301I; Appendix Fig. S7A) was -1.743 and -1.549 and -1.608.
